Data as given in patent US10933053B2, “Treating infections with ceftolozane/tazobactam in subjects having impaired renal function” (MERCK SHARP & DOHME CORP., priority 2013, dated 2021).
“And” between values parts separate entries of the source, which are not always exact repeats. Identical values can stand only once. Like-named read-outs stand apart in the source and are kept apart here.

Assays:
clinical [1] = settings: human, in vivo
Source text: The most common adverse reactions (≥5% in either indication) occurring in patients receiving CXA-201 were nausea, headache and diarrhea. Table 3 lists adverse reactions occurring in ≥1.0% of patients receiving CXA-201 in Phase 3 clinical trials.
The majority of adverse events were mild to moderate in severity, and the incidence of treatment-limiting adverse events was <2% in both treatment groups. Epidemiology and susceptibility of organisms isolated from patients with cUTI.

clinical [2] = settings: both, human, in vivo, 750 mg
Experimental: This was a Phase 1, multicenter, prospective, open-label study of 750 mg ceftolozane/tazobactam (as CXA-201) administered IV in male and female adult subjects with severe renal impairment (estimated CLCR<30 mL/min) and subjects with end-stage renal disease (ESRD) on hemodialysis (HD). The primary objective of the study was to determine the PK profile of ceftolozane/tazobactam in subjects with severe renal impairment and subjects with ESRD on HD and to determine the effect of HD on the clearance of ceftolozane/tazobactam.
Subjects with severe renal impairment received a single IV 1-hour infusion of 750 mg ceftolozane/tazobactam on Day 1. […] Subjects in this cohort received an IV dose of 750 mg ceftolozane/tazobactam as a 1 hour infusion immediately after their first HD session on Day 1 (post dialysis, approximately 72 hours prior to the next HD session) and a second dose of ceftolozane/tazobactam approximately 2 hours before their second HD session on Day 4 of the study. Infusion of ceftolozane/tazobactam was completed approximately 1 hour before the start of HD.
Subjects in both cohorts had urine (if not anuric) and plasma samples collected for determination of levels of ceftolozane, tazobactam and the M1 metabolite of tazobactam; subjects in the ESRD on HD cohort also had dialysate fluid samples collected for PK assessment. Plasma, urine, and dialysate levels of ceftolozane, tazobactam, and its metabolite M1 collected over a prespecified interval were determined by LC/MS/MS assay.

[3] = set-up: species or system human
Source text: Phoenix™ Non Linear Mixed Effects (NLME) version 1.2 (Pharsight Corporation, Certara USA, Inc., 9666 Olive Blvd., Suite 425, St. Louis, Mo. 63132 USA) with the extended least squares first order conditional estimation (FOCE-ELS) was used for population PK modeling and SAS® 9.3 (SAS Institute Inc., 100 SAS Campus Drive, Cary, N.C. 27513-2414, USA) with finite element method (FEM) was used for Monte Carlo simulation. R (2.15.0) and SAS® 9.3 were used for data management, statistical summaries and table/figures generation.
No other structural model was further tested unless necessary. Ceftolozane or tazobactam plasma concentration-time data with hemodialysis were then included and hemodialysis was tested as a covariate effect on both clearance and volume of distribution for the central compartment. The final model was selected based on the stability of the model, reliability and interpretability of the parameter estimates and the goodness-of-fit plots.
The population PK model for ceftolozane was developed via a 2-step process. First, the ceftolozane plasma concentrations without hemodialysis (first dose) were modeled and best described with a 2-compartment disposition model (FIG. 15) plus a proportional residual error model. The between-subject variability was reliably estimable on all four PK parameters CL, Vc, CL2 and V2. When the ceftolozane plasma concentrations following the second dose with hemodialysis were included, the above model, with the addition of a dichotomous covariate and a between-subject variability for the effect of hemodialysis, was the best to fit the combined data.
Similar to ceftolozane, tazobactam plasma concentrations without hemodialysis (first dose) were first modeled and well described with a 2-compartment disposition model (FIG. 15) plus a proportional residual error model. The between-subject variability was reliably estimable on all four PK parameters CL, Vc, CL2 and V2. When the tazobactam plasma concentrations following the second dose were included, the model with hemodialysis evaluated as a dichotomous covariate with a between-subject variability was the best to fit all the combined data. […] (17)
Ceftolozane/tazobactam plasma concentrations collected from 6 patients with ESRD following a single dose without hemodialysis and a second dose with hemodialysis were used to develop a population PK model (Phoenix™ Non Linear Mixed Effects [NLME]).
A 2-compartment disposition model was used to fit the ceftolozane or tazobactam plasma concentration-time data without hemodialysis and to test the between-subject variability and residual variability. Ceftolozane or tazobactam plasma concentration-time data with hemodialysis were then included and hemodialysis was tested as a covariate effect on both clearance and volume of distribution for the central compartment.

[4] = subjects with normal renal function; cited from earlier work
P. aeruginosa = settings: neutropenic murine-thigh infection model; cited from earlier work
human plasma proteins = experiment: Binding to human plasma proteins; format: in vitro ADME
[5] = threshold = 1/2 of the TOL/TAZ MIC; cited from earlier work

SMILES	BSV % (RSE %) of CL ([3]; ESRD)	BSV % (RSE %) of V2 ([3]; ESRD)	BSV % (RSE %) of log-scale coefficient of hemodialysis on CL ([3]; ESRD)	Log-scale coefficient of hemodialysis on CL, mean estimate ([3]; ESRD)	Log-scale coefficient of hemodialysis on Vc, mean estimate ([3]; ESRD)	increase of CL by HD ([3]; ESRD) [fold]	increase of Vc by HD ([3]; ESRD) [fold]	V2, volume of distribution for peripheral compartment, mean estimate ([3]; human)	apparent terminal half-life ([3]; human)	apparent volume of distribution for the central compartment with hemodialysis ([3]; human)	clearance with hemodialysis ([3]; human)	half-life ([3]; human)	median daily steady-state AUC [4] [µg·h/mL]	further results
Cn1c(N)c(NC(=O)NCCN)c[n+]1CC1=C(C(=O)O)N2C(=O)[C@@H](NC(=O)/C(=N\OC(C)(C)C(=O)O)c3nsc(N)n3)[C@H]2SC1 [Ceftolozane, (6R,7R)-3-[(5-amino-4-{[(2-aminoethyl)carbamoyl]amino}-1-methyl-1H-pyrazol-2-ium-2-yl)methyl]-7-({(2Z)-2-(5-amino-1,2,4-thiadiazol-3-yl)-2-[(1-carboxy-1-methylethoxy)imino]acetyl}amino)-8-oxo-5-thia-1-azabicyclo[4.2.0]oct-2-ene-2-carboxylate]	52.2 (29.2) %	48.4 (29.9) %	69.6 (29.8) %	4.09 and 4.1	1.54 and 1.5	60	4.7	11.8	about 40 hours	about 28 L	about 20 L/hr	about 2 hours	690	AUC (clinical [1]): 1100 µg·h/mL; daily AUC previously shown to be safe and tolerable in humans (clinical [1]): 1100 µg·h/mL; AUC(0-inf) (clinical [2]): 537 µg·h/mL; AUC(0-t) (clinical [2]): 511 µg·h/mL; Vd (clinical [2]): 13.8 L; clearance (clinical [2]): 16.7 mL/min; half-life (clinical [2]): 11.1 h; BSV % (RSE %) of CL2 ([3]; ESRD): 35.9 (41.9) %; BSV % (RSE %) of log-scale coefficient of hemodialysis on Vc ([3]; ESRD): 40.0 (34.7) %; Vc, volume of distribution for central compartment, mean estimate ([3]; human): 6 FIXED L; free-drug % T>MIC target associated with 1-log10 CFU reduction from baseline (bactericidal, 1-log kill) (P. aeruginosa): 32.2%; free-drug % T>MIC target associated with net bacterial stasis (P. aeruginosa): 24.8%
C[C@]1(Cn2ccnn2)[C@H](C(=O)O)N2C(=O)C[C@H]2S1(=O)=O [Tazobactam, tazobactam]	142 (29.3) %	24.3 (39.8) %	29 (31.4) %	1.89 and 1.9	0.434 and 0.43	6.6	1.5	6.55	about 4 hours	about 16 L	about 20 L/hr	about 1 hours	89.4	binding to human plasma proteins (human plasma proteins): ~30%; BSV % (RSE %) of Vc ([3]; ESRD): 398 (34.3) %; free-drug % T>threshold target [5]: 65.9
